Values of other authors, collected in patent publication US20230106731A1, “INHIBITORS OF MUTANT FAMILY TYROSINE-KINASES” (Spectrum Pharmaceuticals, Inc., priority 2017, published 2023).

Experiments:
EGFR/HER2 exon 20 mutant = EGFR/HER2 exon 20 mutant patients
[1] = system: EGFR exon 20 driven NSCLC

Row | SMILES | activity in patients (EGFR/HER2 exon 20 mutant) | activity in patient derived xenograft model [1]
1 | CCOc1cc2ncc(C#N)c(Nc3ccc(OCc4ccccn4)c(Cl)c3)c2cc1NC(=O)/C=C/CN(C)C [neratinib] | limited activity | –
2 | CS(=O)(=O)CCNCc1ccc(-c2ccc3ncnc(Nc4ccc(OCc5cccc(F)c5)c(Cl)c4)c3c2)o1 [lapatinib] | limited activity | –
3 | C=CC(=O)Nc1cc(Nc2nccc(-c3cn(C)c4ccccc34)n2)c(OC)cc1N(C)CCN(C)C [osimertinib] | – | minimal activity
